Target: T1, human Melanin concentrating hormone receptor 1 (MCH1r) (Homo sapiens, UniProt Q99705)
T1 construct: expressed in transfected cells; host or cells: CHO-K1 cells (membranes)
Experiment: MCH1 receptor radioligand binding (125I-MCH, CHO-K1 cell membranes)
Conditions: human MCHr binding assay
Experimental: MCH1 Receptor Radioligand Binding.
Assays were performed on membranes prepared from CHO-K1 cells expressing the human Melanin concentrating hormone receptor 1 (MCH1r). Assays were performed in a 96-well plate format in a final reaction volume of 200 μl per well. Each well contained 6 μg of membrane proteins diluted in binding buffer (50 mM Tris, 3 mM MgCl2, 0.05% bovine serum albumin (BSA) and the radioligand ^125I-MCH (IM344 Amersham) was added to give 10 000 cpm (counts per minute) per well. Each well contained 2 μl of the appropriate concentration of competitive antagonist prepared in DMSO and left to stand at 30° C. for 60 minutes. Non-specific binding was determined as that remaining following incubation with 1 μM MCH (Melanin concentrating hormone, H-1482 Bachem). The reaction was terminated by transfer of the reaction to GF/A filters using a Micro96 Harvester (Skatron Instruments, Norway). Filters were washed with assay buffer. Radioligand retained on the filters was quantified using a1450 Microbeta TRILUX (Wallac, Finland).
Non-specific binding was subtracted from all values determined. Maximum binding was that determined in the absence of any competitor following subtraction of the value determined for non-specific binding. […]

T1 sequence (Q99705 whole entry): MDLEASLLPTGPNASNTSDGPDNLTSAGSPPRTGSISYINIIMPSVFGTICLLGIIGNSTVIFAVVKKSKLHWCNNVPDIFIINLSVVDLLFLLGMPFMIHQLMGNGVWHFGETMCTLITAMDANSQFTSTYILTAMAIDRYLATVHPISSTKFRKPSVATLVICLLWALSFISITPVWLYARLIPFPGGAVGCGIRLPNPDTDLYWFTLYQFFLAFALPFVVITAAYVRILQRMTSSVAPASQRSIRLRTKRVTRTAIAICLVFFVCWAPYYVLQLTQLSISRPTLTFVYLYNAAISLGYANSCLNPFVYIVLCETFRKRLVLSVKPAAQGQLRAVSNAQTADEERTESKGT

IC50: 15 nM
Structure (SMILES): CN(C)c1nc(N[C@H]2CCC[C@H](NCc3cn(C)c4ccccc34)C2)nc2ccccc12 (relative stereo) [Example 4, N^4,N^4-dimethyl-N^2-(-3-{[(1-methyl-1H-indol-3-yl)methyl]amino}-trans-cyclohexyl)quinazoline-2,4-diamine]

Source: patent publication US20070185119A1, “Therapeutic agents II” (ASTRAZENECA AB, priority 2004, published 2007)
